From patent US20260365646A1, “AKT1 MODULATORS” (Alterome Therapeutics, Inc., priority 2022, published 2026)

Molecular target: T1, full length AKT E17K (Homo sapiens, UniProt P31749, E17K)
T1 construct: host or cells: HEK-293 (ATCC CRL-1573)
Assay: NanoBRET Target Engagement (TE) Intracellular Kinase Assay
Format: cell-based
Conditions: not given
Source text: The NanoBRET™ Target Engagement (TE) Intracellular Kinase Assays are based on the NanoBRET™ System (Promega Corporation), an energy transfer technique designed to measure molecular proximity in living cells. The NanoBRET™ TE Assays measure the apparent affinity of test compounds by competitive displacement of the NanoBRET™ tracer compound, which is a cell permeable molecule engineered to be reversibly bound to a NanoLuc® luciferase-kinase fusion expressed in cells. For compound screening, when a test compound binds to the selected kinase, the BRET signal is attenuated. […] All cells were evaluated for viability prior to transfection and optimization of the transfection was done prior to experimentation. […] Following transfection, cells were washed and resuspended in Opti-MEM. NanoBRET assays were performed in white, 384-well plates (Corning) at a density of 2×10^5 cells/well. All example compounds were prepared as concentrated stock solutions in DMSO (Sigma-Aldrich). Compounds are dissolved in DMSO to make 10 mM stock solution. […] A Labcyte ECHO 550 compound dispenser was used to facilitate compound transfer directly to cells. Cells were equilibrated for 2 hr with energy transfer probes and example compound prior to BRET measurements. […] For target engagement analysis, the energy transfer probes were added to the cells at concentrations optimized for the target in question (AKT E17K). Following compound incubation, NanoBRET NanoGlo Substrate (Promega Cat #Ni57D) and Extracellular Nanoluc Inhibitor (Promega Cat #N235C) was added according to the manufacturer's recommended protocol, and luminescence was measured on Envision Reader (Perkin Elmer) Multimode Luminometer equipped with 450 nm BPfilter (donor) and 600 nm LPfilter (acceptor), using 0.5 s integration time. Milli-BRET units (mBU) are calculated by multiplying the raw BRET values by 1000. Apparent tracer affinity values (EC50) were determined using the sigmoidal dose-response (variable slope). Competitive displacement data were then plotted and data were fit to determine the EC50 value for each example compound.

T1 sequence (P31749 whole entry E17K): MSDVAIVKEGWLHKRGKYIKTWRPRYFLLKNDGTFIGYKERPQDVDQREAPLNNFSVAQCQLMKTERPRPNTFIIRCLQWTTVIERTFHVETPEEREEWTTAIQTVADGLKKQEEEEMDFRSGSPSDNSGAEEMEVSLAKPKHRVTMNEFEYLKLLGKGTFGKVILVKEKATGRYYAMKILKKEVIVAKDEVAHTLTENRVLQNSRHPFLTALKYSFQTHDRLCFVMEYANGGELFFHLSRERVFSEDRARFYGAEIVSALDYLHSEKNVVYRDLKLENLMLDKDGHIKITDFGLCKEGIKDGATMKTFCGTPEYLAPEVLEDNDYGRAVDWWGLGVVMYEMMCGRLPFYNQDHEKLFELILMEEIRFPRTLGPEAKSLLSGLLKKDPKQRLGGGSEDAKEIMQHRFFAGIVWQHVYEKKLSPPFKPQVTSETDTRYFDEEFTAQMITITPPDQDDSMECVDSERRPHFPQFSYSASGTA

SMILES | EC50 [nM]
COc1c(N2CCN(Cc3ccc(-n4c(-c5cccnc5N)nc5ccc(-c6ccccc6)nc54)cc3)CC23CC3)c(=O)c1=O [Example 37, 3-(7-(4-(2-(2-Aminopyridin-3-yl)-5-phenyl-3H-imidazo[4,5-b]pyridin-3-yl)benzyl)-4,7-diazaspiro[2.5]octan-4-yl)-4-methoxycyclobut-3-ene-1,2-dione] | 15 to 60
COc1c(N2CCN(Cc3ccc(-n4c(-c5cccnc5N)nc5ccc(-c6ccccc6)nc54)cc3)C[C@@H]2CO)c(=O)c1=O [Example 79, (R)-3-(4-(4-(2-(2-aminopyridin-3-yl)-5-phenyl-3H-imidazo[4,5-b]pyridin-3-yl)benzyl)-2-(hydroxymethyl)piperazin-1-yl)-4-methoxycyclobut-3-ene-1,2-dione] | 60 to 600
COc1c(N2CCC3(CCN(Cc4ccc(-n5c(-c6cccnc6N)nc6ccc(-c7ccccc7)nc65)cc4)C3)CC2)c(=O)c1=O [Example 57, 3-(2-(4-(2-(2-Aminopyridin-3-yl)-5-phenyl-3H-imidazo[4,5-b]pyridin-3-yl)benzyl)-2,8-diazaspiro[4.5]decan-8-yl)-4-methoxycyclobut-3-ene-1,2-dione] | 15 to 60
COc1c(N2[C@H](C)CN(Cc3ccc(-n4c(-c5cccnc5N)nc5ccc(-c6ccccc6)nc54)cc3)C[C@H]2C)c(=O)c1=O [Example 69, 3-((2R,6R)-4-(4-(2-(2-aminopyridin-3-yl)-5-phenyl-3H-imidazo[4,5-b]pyridin-3-yl)benzyl)-2,6-dimethylpiperazin-1-yl)-4-methoxycyclobut-3-ene-1,2-dione] | 60 to 600
Nc1ncccc1-c1nc2ccc(-c3ccccc3)nc2n1-c1ccc(CNc2c(O)c(=O)c2=O)cc1 [Example 5, 3-((4-(2-(2-Aminopyridin-3-yl)-5-phenyl-3H-imidazo[4,5-b]pyridin-3-yl)benzyl)amino)-4-hydroxycyclobut-3-ene-1,2-dione] | > 600
Nc1ncccc1-c1nc2ccc(-c3ccccc3)nc2n1-c1ccc(CN2CCC(Nc3c(OC4CCCC4)c(=O)c3=O)CC2)cc1 [Example 14, 3-((1-(4-(2-(2-Aminopyridin-3-yl)-5-phenyl-3H-imidazo[4,5-b]pyridin-3-yl)benzyl)piperidin-4-yl)amino)-4-(cyclopentyloxy)cyclobut-3-ene-1,2-dione] | 60 to 600
Nc1ncccc1-c1nc2ccc(-c3ccccc3)nc2n1-c1ccc(CN2CCC(N3CCCOc4c3c(=O)c4=O)C2)cc1 (centres unmarked) [Example 82, 6-(1-(4-(2-(2-aminopyridin-3-yl)-5-phenyl-3H-imidazo[4,5-b]pyridin-3-yl)benzyl)pyrrolidin-3-yl)-2-oxa-6-azabicyclo[5.2.0]non-1(7)-ene-8,9-dione] | 60 to 600
Nc1ncccc1-c1nc2ccc(-c3ccccc3)nc2n1-c1ccc(CN2CCN3c4c(c(=O)c4=O)OCC[C@H]3C2)cc1 [Example 89, (S)-7-(4-(2-(2-aminopyridin-3-yl)-5-phenyl-3H-imidazo[4,5-b]pyridin-3-yl)benzyl)-5,5a,6,7,8,9-hexahydro-4H-cyclobuta[b]pyrazino[1,2-d][1,4]oxazepine-1,2-dione] | > 600
Nc1ncccc1-c1nc2ccc(-c3ccccc3)nc2n1-c1ccc(CN2CCC(Nc3c(S)c(=O)c3=O)CC2)cc1 [Example 44, 3-((1-(4-(2-(2-aminopyridin-3-yl)-5-phenyl-3H-imidazo[4,5-b]pyridin-3-yl)benzyl)piperidin-4-yl)amino)-4-mercaptocyclobut-3-ene-1,2-dione] | 60 to 600

Same assay, conditions: read-out: NanoBRET AKT1E17K EC50; HEK-293 cells transfected with NanoLuc-AKT E17K; competitive displacement of NanoBRET tracer; 2 hr equilibration; 10-point 3-fold dilution

SMILES | EC50 [nM]
COc1c(NC2CCCN(Cc3ccc(-n4c(-c5cccnc5N)nc5ccc(-c6ccccc6)nc54)cc3)CC2)c(=O)c1=O (centres unmarked) [Example 73, 3-((1-(4-(2-(2-aminopyridin-3-yl)-5-phenyl-3H-imidazo[4,5-b]pyridin-3-yl)benzyl)azepan-4-yl)amino)-4-methoxycyclobut-3-ene-1,2-dione] | < 15
COc1c(N2CCC(OCc3ccc(-n4c(-c5cccnc5N)nc5ccc(-c6ccccc6)nc54)cc3)CC2)c(=O)c1=O [Example 78, 3-(4-((4-(2-(2-aminopyridin-3-yl)-5-phenyl-3H-imidazo[4,5-b]pyridin-3-yl)benzyl)oxy)piperidin-1-yl)-4-methoxycyclobut-3-ene-1,2-dione] | < 15
